From ChEMBL document CHEMBL1212762, “In vivo activity of ceftobiprole in murine skin infections due to Staphylococcus aureus and Pseudomonas aeruginosa” (Antimicrob Agents Chemother, 2010) come the findings set out here.

The test system of this experiment is Pseudomonas aeruginosa. Put plainly: Antimicrobial activity against Pseudomonas aeruginosa OC 4351 assessed as inhibition of growth by broth microdilution method. It counts as functional.

As usually defined, the MIC is the lowest concentration found to suppress growth.

Each structure is given as a SMILES string.

In the case of `Nc1nc(/C(=N/O)C(=O)N[C@@H]2C(=O)N3C(C(=O)O)=C(/C=C4\CCN([C@@H]5CCNC5)C4=O)CS[C@H]23)ns1` [CEFTOBIPROLE], the minimal inhibitory concentration (MIC) was found to be 4 µg/mL.
